For assay [1], the target named is T1, human bradykinin 1 receptor (B1R) (Homo sapiens, UniProt P46663).
T1 construct: expressed in transfected cells; host or cells: CHO K1 cells
T1 sequence (P46663 1-353): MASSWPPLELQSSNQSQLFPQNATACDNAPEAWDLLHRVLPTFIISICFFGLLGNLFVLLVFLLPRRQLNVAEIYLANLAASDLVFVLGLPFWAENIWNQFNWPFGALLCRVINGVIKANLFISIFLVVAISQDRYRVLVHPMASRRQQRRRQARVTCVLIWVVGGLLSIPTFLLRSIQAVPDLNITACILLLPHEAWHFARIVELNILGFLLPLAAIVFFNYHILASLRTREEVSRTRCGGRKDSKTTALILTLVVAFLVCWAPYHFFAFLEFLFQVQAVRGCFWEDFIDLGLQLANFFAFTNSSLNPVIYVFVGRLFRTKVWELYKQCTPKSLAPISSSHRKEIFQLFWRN
The experiment in a line: Functional investigation on the human bradykinin 1 receptor (B1R), Ca2+ FLIPR assay in CHO K1 hB1R cells. The class given is cell-based. Particulars: B1R antagonism human; test substance 10 μM; Ca2+ FLIPR, CHO K1 hB1R cells. Put shortly:
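Peak Ca2+-dependent fluorescence in B1R-transfected CHO K1 cells measures antagonism of an EC80 agonist challenge given 10-20 min after compound. Agonist is Lys-Des-Arg9-bradykinin for human, Des-Arg9-bradykinin for rat receptor.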

Assay [2] concerns the target T2, serotonin (5-HT) reuptake (Rattus norvegicus, UniProt P31652).
T2 construct: synaptosomes are freshly isolated from areas of the rat brain; from tissue; host or cells: rat brain synaptosomes (P2 fraction)
In words: Inhibition of serotonin (5HT) reuptake in synaptosomes from rat brain. The class given is biochemical. Particulars: test concentration of 10 μM. The essentials: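 Compounds screened at 10 μM and reported as percent inhibition of serotonin uptake. Uptake measured in a freshly prepared P2 synaptosomal fraction from rat brain.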

Results on eleven compounds are retold here after patent US8106055B2, “Substituted amide compounds” (Gruenenthal GmbH, priority 2007, dated 2012).

T2 sequence (P31652 whole entry): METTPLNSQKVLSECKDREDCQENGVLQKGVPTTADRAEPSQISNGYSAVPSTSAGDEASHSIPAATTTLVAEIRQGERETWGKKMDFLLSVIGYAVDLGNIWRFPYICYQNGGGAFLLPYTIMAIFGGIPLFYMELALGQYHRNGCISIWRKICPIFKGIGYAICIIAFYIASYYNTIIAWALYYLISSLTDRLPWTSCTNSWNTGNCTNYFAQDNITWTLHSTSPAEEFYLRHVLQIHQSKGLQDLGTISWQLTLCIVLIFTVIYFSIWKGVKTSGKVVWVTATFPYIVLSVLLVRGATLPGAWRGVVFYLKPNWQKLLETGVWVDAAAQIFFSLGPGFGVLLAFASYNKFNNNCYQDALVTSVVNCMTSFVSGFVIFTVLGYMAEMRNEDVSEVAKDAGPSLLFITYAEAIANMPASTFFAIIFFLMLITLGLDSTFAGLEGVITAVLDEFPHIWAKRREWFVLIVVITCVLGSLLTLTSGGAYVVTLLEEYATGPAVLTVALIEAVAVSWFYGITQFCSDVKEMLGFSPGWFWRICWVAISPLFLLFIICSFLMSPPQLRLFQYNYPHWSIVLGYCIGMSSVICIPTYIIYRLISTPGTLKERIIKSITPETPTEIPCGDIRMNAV

With `COc1ccc(S(=O)(=O)N2CCCCC2CCOCC(=O)NCC2CCC(C(c3ccc(F)cc3)N(C)C)CC2)cc1` (stereo not shown) [Example 350], the “B1R Ant. h [10 μM] % Inhibition” value in assay [1] is 57%. The “5-HT (inhibition of reuptake of serotonin, % inhibition)” value in assay [2] is 92%.
`COc1ccc(S(=O)(=O)N2CCCC2COCC(=O)NCC2CCC(C(c3ccc(Cl)cc3)N(C)C)CC2)cc1` (stereo not shown) [Example 351]: the “B1R Ant. h [10 μM] % Inhibition” value in assay [1] came to 52%. The “5-HT (inhibition of reuptake of serotonin, % inhibition)” value in assay [2] is recorded as 97%.
In the case of `COc1ccc(S(=O)(=O)N2CCCCC2COCC(=O)NC2CCC(C(c3cccc(F)c3)N(C)C)CC2)cc1OC` (stereo not shown) [Example 352], in assay [1], the “B1R Ant. h [10 μM] % Inhibition” value is −18%. Besides, the “5-HT (inhibition of reuptake of serotonin, % inhibition)” value in assay [2] worked out at 91%.
With `COc1cc(C)c(S(=O)(=O)N(C)CCOCC(=O)NCCC2CCC(C(c3ccc(F)cc3)N(C)C)CC2)c(C)c1C` (stereo not shown) [Example 354], the “B1R Ant. h [10 μM] % Inhibition” value in assay [1] was 104%. The “5-HT (inhibition of reuptake of serotonin, % inhibition)” value in assay [2] is on record as 90%.
Turning to `CN(C)C(c1cccc(F)c1)C1CCC(CNC(=O)COC2CCN(S(=O)(=O)c3ccccc3)C2)CC1` (stereo not shown) [Example 355], the “B1R Ant. h [10 μM] % Inhibition” value in assay [1] is recorded as −7%. Moreover, the “5-HT (inhibition of reuptake of serotonin, % inhibition)” value in assay [2] was determined as 102%.
With `CN(C)C(c1ccc(F)cc1)C1CCC(NC(=O)COCCN(C)S(=O)(=O)c2ccc(Cl)cc2Cl)CC1` (stereo not shown) [Example 356], the “B1R Ant. h [10 μM] % Inhibition” value in assay [1] stood at 92%. For the same compound, in assay [2], the “5-HT (inhibition of reuptake of serotonin, % inhibition)” value was 84%.
For the compound `CN(C)C(c1ccc(F)cc1)C1CCC(NC(=O)COCCN(C)S(=O)(=O)c2ccc(F)cc2)CC1` (stereo not shown) [Example 357], the “B1R Ant. h [10 μM] % Inhibition” value in assay [1] was determined as 7%. In addition, the “5-HT (inhibition of reuptake of serotonin, % inhibition)” value in assay [2] worked out at 86%.
Regarding `COc1cc(C)c(S(=O)(=O)N(CCOCC(=O)NCCC2CCC(C(c3cccc(F)c3)N(C)C)CC2)Cc2ccccc2)c(C)c1` (stereo not shown) [Example 358], the “B1R Ant. h [10 μM] % Inhibition” value in assay [1] was 66%. Also, the “5-HT (inhibition of reuptake of serotonin, % inhibition)” value in assay [2] was 92%.
`CN(C)C(c1ccc(F)cc1)C1CCC(CNC(=O)COC2CCCCC2N(C)S(=O)(=O)c2ccc(Cl)c(Cl)c2)CC1` (stereo not shown) [Example 359]: the “B1R Ant. h [10 μM] % Inhibition” value in assay [1] is listed as 42%. In assay [2], the “5-HT (inhibition of reuptake of serotonin, % inhibition)” value worked out at 90%.
In the case of `CN(C)C(c1ccc(F)cc1)C1CCC(NC(=O)COCCN(C)S(=O)(=O)c2ccc(OC(F)(F)F)cc2)CC1` (stereo not shown) [Example 361], the “B1R Ant. h [10 μM] % Inhibition” value in assay [1] worked out at 3%. Moreover, the “5-HT (inhibition of reuptake of serotonin, % inhibition)” value in assay [2] came out at 87%.
In the case of `Cc1ccc(S(=O)(=O)N(C)CCOCC(=O)NCC2CCC(C(c3ccc(F)cc3)N(C)C)CC2)cc1` (stereo not shown) [Example 362], the “B1R Ant. h [10 μM] % Inhibition” value in assay [1] came out at 7%. The “5-HT (inhibition of reuptake of serotonin, % inhibition)” value in assay [2] was determined as 105%.
